# Tests used:
# Assay type in all cases: biochemical
# GSK-3β = target: T1, GSK-3β (Homo sapiens, UniProt P49841); experiment: GSK-3β kinase assay (Z'-LYTE Kinase Assay kit Ser/Thr 9 Peptide); settings: for IC50: 50 nM enzyme, 30 μM ATP, 2 μM substrate peptide, triplicate, mean ± SE, read-out: GSK-3β inhibitory activity IC50 (nM) ± SE; for Selectivity for GSK-3β over other tested kinases: versus PKC-epsilon, JAK2, BRAF, IKK2 and Drak2
# T1 construct: GST (N, cleaved yes); made in house; host or cells: Escherichia coli BL21-Codon Plus (DE3)
# Experimental: (§1) GSK3β belongs to CMGC family. Here, the other family members were used to evaluate the selectivity of GSK3β inhibitors, including PKC-epsilon (AGC family), JAK2 (TK family), Braf (TKL family), DRAK2 (CAMK family) and IKKβ (other family).The recombinant GST-GSK-3βprotein was expressed in Escherichia coli strain BL21-Codon Plus (DE3), purified by GSTrap affinity chromatography, and cleaved by thrombin. The GSK-3β kinase assay was carried out with the Z´-LYTETM Kinase Assay kit Ser/Thr 9 Peptide substrate (Invitrogen, Grand, NY, USA) in 10 μL reaction volume containing 50 nM enzyme, 30 μM ATP and 2 μM substrate peptide. Drak2 Proteins were presented by professor Jiang-ping Wu (Laboratory of Immunology, Research Centre, CHUM, Notre Dame Hospital, Pavilion DeSève). The Drak2 kinase reaction was performed in a final assay volume of 3.4 μL using the ADP-GLO Kinase Assay Kit (Promega, Madison, WI, USA), according the ADP-GLO protocol and read on an EnVision plate reader. The recombinant PKC-epsilon, IKKβ, and JAK2 with N-terminal His-tag were expressed using baculovirus expression system and purified with Ni-Beads. BRAF protein was from Carna Biosciences, Inc. (Kobe Port Island, Japan). And the related kinase reactions were performed in a final assay volume of 10 μL using the related HTRF Assay Kit (Cisbio, Codolet, France). Reactions were according the HTRF protocol and read on an EnVision plate reader. All reactions were carried out in triplicate. […] Data were expressed as mean ± SE.
# PKC-epsilon = target: T2, PKC-epsilon (Homo sapiens, UniProt Q02156); experiment: PKC-epsilon kinase assay (HTRF); settings: read-out: PKC-epsilon inhibition% at 0.8 μg/mL (~2 μM)
# T2 construct: His-tag (N); made in house
# T2 sequence (Q02156 1-737): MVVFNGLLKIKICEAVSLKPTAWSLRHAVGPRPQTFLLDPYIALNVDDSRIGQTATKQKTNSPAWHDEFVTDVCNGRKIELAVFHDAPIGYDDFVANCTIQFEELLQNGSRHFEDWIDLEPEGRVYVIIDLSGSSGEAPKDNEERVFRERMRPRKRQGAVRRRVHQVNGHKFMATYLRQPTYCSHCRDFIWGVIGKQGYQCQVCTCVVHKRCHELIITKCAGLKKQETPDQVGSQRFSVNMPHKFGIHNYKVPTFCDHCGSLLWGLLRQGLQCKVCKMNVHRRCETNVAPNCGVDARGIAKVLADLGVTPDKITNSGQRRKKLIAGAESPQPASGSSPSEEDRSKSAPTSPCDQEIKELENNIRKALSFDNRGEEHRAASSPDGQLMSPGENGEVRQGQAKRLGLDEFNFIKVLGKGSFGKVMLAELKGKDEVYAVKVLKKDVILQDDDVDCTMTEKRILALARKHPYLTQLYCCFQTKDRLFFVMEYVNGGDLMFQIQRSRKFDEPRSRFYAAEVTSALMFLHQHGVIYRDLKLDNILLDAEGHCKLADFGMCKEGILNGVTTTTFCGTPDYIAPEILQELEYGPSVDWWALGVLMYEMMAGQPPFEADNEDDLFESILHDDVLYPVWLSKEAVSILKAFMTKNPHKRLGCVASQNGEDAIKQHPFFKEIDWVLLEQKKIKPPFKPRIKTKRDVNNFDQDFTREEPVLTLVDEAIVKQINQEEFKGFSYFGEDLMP
# Experimental: as §1
# IKK2 = target: T3, IKK2 (Homo sapiens, UniProt O14920); experiment: IKK2 (IKKβ) kinase assay (HTRF); settings: read-out: IKK2 inhibition% at 0.8 μg/mL (~2 μM)
# T3 construct: His-tag (N); made in house
# T3 sequence (O14920 1-756): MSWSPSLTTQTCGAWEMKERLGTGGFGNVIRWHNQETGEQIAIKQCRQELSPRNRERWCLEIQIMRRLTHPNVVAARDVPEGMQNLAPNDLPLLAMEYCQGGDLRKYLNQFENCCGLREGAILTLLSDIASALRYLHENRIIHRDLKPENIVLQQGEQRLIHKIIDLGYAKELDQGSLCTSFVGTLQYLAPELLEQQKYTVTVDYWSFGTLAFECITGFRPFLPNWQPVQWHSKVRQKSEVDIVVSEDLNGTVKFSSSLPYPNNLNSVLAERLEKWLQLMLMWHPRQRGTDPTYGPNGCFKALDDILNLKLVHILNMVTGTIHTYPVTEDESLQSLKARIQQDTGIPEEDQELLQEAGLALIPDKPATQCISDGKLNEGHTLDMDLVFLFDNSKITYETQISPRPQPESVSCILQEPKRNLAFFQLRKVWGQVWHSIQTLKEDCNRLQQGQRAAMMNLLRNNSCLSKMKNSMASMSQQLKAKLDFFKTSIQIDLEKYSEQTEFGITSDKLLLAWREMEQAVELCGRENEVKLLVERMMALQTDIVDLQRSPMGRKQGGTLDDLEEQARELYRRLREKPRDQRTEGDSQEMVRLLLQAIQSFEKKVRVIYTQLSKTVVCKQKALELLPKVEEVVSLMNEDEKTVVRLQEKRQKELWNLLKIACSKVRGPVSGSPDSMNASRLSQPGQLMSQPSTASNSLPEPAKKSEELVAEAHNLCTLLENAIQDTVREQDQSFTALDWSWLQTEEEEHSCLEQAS
# Experimental: as §1
# BRAF = target: T4, BRAF (Homo sapiens, UniProt P15056); experiment: BRAF kinase assay (HTRF); settings: read-out: BRAF inhibition% at 0.8 μg/mL (~2 μM)
# T4 construct: purchased Carna Biosciences, Inc
# Experimental: as §1
# JAK2 = target: T5, JAK2 (Homo sapiens, UniProt O60674); experiment: JAK2 kinase assay (HTRF); settings: read-out: JAK2 inhibition% at 0.8 μg/mL (~2 μM)
# T5 construct: His-tag (N); made in house
# Experimental: as §1
# Drak2 = target: T6, Drak2 (Homo sapiens, UniProt O94768); experiment: Drak2 kinase assay (ADP-GLO); settings: read-out: Drak2 inhibition% at 0.8 μg/mL (~2 μM)
# T6 sequence (O94768 1-372): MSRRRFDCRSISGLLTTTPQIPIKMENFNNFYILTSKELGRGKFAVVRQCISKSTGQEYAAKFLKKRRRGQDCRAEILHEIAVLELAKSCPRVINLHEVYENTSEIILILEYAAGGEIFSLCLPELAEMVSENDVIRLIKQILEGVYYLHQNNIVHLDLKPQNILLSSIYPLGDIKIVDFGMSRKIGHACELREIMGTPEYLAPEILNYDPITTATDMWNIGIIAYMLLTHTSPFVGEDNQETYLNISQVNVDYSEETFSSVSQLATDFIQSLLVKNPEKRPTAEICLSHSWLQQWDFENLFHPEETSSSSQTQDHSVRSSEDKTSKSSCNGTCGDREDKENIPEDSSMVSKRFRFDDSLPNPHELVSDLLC
# Experimental: as §1
# T1 sequence (P49841 whole entry): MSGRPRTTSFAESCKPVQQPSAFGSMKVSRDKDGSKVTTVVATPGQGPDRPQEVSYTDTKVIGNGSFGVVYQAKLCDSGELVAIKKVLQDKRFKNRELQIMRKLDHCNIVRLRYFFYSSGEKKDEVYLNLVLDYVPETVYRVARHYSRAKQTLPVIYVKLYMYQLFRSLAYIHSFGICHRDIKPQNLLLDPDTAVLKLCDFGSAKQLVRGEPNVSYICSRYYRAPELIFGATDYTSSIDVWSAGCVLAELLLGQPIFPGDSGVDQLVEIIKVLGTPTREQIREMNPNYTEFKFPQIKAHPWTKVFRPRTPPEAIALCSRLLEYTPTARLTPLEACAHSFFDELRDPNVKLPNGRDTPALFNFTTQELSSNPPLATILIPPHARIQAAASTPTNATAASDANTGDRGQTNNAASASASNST
# T4 sequence (P15056 whole entry): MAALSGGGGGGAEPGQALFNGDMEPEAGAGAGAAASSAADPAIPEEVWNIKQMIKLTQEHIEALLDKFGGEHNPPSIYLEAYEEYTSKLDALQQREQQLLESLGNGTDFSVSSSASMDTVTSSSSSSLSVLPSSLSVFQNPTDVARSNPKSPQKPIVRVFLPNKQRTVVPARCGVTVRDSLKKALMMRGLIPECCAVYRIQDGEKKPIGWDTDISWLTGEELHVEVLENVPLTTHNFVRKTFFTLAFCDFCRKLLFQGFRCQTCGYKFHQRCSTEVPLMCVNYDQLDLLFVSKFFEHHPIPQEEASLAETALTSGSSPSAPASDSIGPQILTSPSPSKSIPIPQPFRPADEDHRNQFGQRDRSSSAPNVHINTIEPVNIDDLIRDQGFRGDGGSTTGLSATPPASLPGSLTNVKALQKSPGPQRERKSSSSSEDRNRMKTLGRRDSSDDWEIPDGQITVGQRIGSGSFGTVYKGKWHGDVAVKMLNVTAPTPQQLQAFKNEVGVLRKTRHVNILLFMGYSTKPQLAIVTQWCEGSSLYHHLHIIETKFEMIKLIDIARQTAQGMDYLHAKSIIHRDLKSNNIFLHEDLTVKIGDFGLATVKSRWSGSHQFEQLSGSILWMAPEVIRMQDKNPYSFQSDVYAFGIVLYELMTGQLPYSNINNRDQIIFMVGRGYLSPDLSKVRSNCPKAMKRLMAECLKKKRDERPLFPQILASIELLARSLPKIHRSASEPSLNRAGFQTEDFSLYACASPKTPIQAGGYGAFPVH
# T5 sequence (O60674 whole entry): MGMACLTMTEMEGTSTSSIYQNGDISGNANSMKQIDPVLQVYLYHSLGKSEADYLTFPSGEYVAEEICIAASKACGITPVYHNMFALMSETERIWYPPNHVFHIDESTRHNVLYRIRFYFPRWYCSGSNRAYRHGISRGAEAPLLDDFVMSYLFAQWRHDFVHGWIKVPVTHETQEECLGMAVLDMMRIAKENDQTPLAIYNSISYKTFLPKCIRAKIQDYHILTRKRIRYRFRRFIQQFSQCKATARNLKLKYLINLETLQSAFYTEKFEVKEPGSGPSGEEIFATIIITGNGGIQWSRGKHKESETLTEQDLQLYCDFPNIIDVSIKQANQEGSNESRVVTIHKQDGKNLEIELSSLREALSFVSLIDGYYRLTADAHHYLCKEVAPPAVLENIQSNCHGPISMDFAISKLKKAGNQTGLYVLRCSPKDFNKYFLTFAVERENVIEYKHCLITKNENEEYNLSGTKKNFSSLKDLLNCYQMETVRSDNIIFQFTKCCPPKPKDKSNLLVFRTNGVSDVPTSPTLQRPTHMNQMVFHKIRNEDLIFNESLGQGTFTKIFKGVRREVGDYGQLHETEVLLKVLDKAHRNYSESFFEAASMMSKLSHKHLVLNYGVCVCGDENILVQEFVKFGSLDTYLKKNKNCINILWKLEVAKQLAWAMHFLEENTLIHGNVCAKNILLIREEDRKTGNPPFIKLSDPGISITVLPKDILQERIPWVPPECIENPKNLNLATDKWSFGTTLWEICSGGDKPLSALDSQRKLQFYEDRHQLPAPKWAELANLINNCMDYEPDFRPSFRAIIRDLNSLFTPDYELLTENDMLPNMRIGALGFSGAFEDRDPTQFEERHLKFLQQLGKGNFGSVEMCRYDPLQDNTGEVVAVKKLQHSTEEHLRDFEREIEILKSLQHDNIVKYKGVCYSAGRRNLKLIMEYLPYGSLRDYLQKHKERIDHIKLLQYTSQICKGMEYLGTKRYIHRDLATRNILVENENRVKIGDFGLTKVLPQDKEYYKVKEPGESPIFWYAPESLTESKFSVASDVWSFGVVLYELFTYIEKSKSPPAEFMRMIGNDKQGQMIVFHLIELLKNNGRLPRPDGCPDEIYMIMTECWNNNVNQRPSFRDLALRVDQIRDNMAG
IC50 (GSK-3β) [nM],Compound,other results
22.1 ± 1.5,"Cn1cc(C2=C(c3noc4ccccc34)C(=O)NC2=O)c2ccccc21 [7o, 3-(Benzo[d]isoxazol-3-yl)-4-(1-methyl-1H-indol-3-yl)-1H-pyrrole-2,5-dione]",Selectivity for GSK-3β over other tested kinases (GSK-3β): high selectivity; inhibition at 2 µM (PKC-epsilon): 21.2%; inhibition at 2 µM (IKK2): 2.9%; inhibition at 2 µM (BRAF): 1.1%; inhibition at 2 µM (JAK2): 9.4%; inhibition at 2 µM (Drak2): 13.8%
659 ± 15.7,"O=C1NC(=O)C(c2cn(CCCN3CCCC3)c3ccccc23)=C1c1noc2ccccc12 [7n, 3-(Benzo[d]isoxazol-3-yl)-4-(1-(3-(pyrrolidin-1-yl)propyl)-1H-indol-3-yl)-1H-pyrrole-2,5-dione]",–
38.9 ± 2.6,"O=C1NC(=O)C(c2cn(CCCO)c3ccccc23)=C1c1noc2ccccc12 [7q, 3-(Benzo[d]isoxazol-3-yl)-4-(1-(3-hydroxypropyl)-1H-indol-3-yl)-1H-pyrrole-2,5-dione]",–
58.7 ± 2.8,"CCCCn1cc(C2=C(c3noc4ccccc34)C(=O)NC2=O)c2ccccc21 [7p, 3-(Benzo[d]isoxazol-3-yl)-4-(1-butyl-1H-indol-3-yl)-1H-pyrrole-2,5-dione]",–
512 ± 15.6,"O=C1NC(=O)C(c2cn(CCCN3CCCCC3)c3ccccc23)=C1c1noc2ccccc12 [7m, 3-(Benzo[d]isoxazol-3-yl)-4-(1-(3-(piperidin-1-yl)propyl)-1H-indol-3-yl)-1H-pyrrole-2,5-dione]",–

# The next lines start with the compound.
Compound,IC50 (GSK-3β) [nM],other results
"O=C1NC(=O)C(c2noc3ccccc23)=C1c1c[nH]c2ccccc12 [7a, 3-(Benzo[d]isoxazol-3-yl)-4-(1H-indol-3-yl)-1H-pyrrole-2,5-dione]",332 ± 25.7,–
"O=C1NC(=O)C(c2cn(CCCN3CCOCC3)c3cc(Br)ccc23)=C1c1noc2ccccc12 [7d, 3-(Benzo[d]isoxazol-3-yl)-4-(6-bromo-1-(3-morpholinopropyl)-1H-indol-3-yl)-1H-pyrrole-2,5-dione]",210 ± 8.9,–
"O=C1NC(=O)C(c2cn(CCCN3CCOCC3)c3cc(Cl)ccc23)=C1c1noc2ccccc12 [7e, 3-(Benzo[d]isoxazol-3-yl)-4-(6-chloro-1-(3-morpholinopropyl)-1H-indol-3-yl)-1H-pyrrole-2,5-dione]",510 ± 20.1,–
"COc1ccc2c(c1)c(C1=C(c3noc4ccccc34)C(=O)NC1=O)cn2CCCN1CCOCC1 [7b, 3-(Benzo[d]isoxazol-3-yl)-4-(5-methoxy-1-(3-morpholinopropyl)-1H-indol-3-yl)-1H-pyrrole-2,5-dione]",357 ± 17.1,–
"O=C1NC(=O)C(c2cn(CCN3CCOCC3)c3ccccc23)=C1c1noc2ccccc12 [7g, 3-(Benzo[d]isoxazol-3-yl)-4-(1-(2-morpholinoethyl)-1H-indol-3-yl)-1H-pyrrole-2,5-dione]",615.6 ± 6.1,–
"O=C1NC(=O)C(c2cn(CCCn3cncn3)c3ccccc23)=C1c1noc2ccccc12 [7l, 3-(1-(3-(1H-1,2,4-Triazol-1-yl)propyl)-1H-indol-3-yl)-4-(benzo[d]isoxazol-3-yl)-1H-pyrrole-2,5-dione]",20.9 ± 5.1,–
"O=C1NC(=O)C(c2cn(CCCCN3CCOCC3)c3ccccc23)=C1c1noc2ccccc12 [7i, 3-(Benzo[d]isoxazol-3-yl)-4-(1-(4-morpholinobutyl)-1H-indol-3-yl)-1H-pyrrole-2,5-dione]",411 ± 8.2,–
"O=C1NC(=O)C(c2cn(CCCN3CCOCC3)c3ccccc23)=C1c1noc2ccccc12 [7h, 3-(Benzo[d]isoxazol-3-yl)-4-(1-(3-morpholinopropyl)-1H-indol-3-yl)-1H-pyrrole-2,5-dione]",138 ± 6,–
"O=C1NC(=O)C(c2cn(CCCn3ccnc3)c3ccccc23)=C1c1noc2ccccc12 [7j, 3-(1-(3-(1H-Imidazol-1-yl)propyl)-1H-indol-3-yl)-4-(benzo[d]isoxazol-3-yl)-1H-pyrrole-2,5-dione]",0.73 ± 0.02,"GSK-3β inhibitory potency, fold more potent than compound 7a (GSK-3β; ratio of IC50 values, versus 7a): about 460 fold; Selectivity for GSK-3β over other tested kinases (GSK-3β): high selectivity; inhibition at 2 µM (PKC-epsilon): 10.9%; inhibition at 2 µM (IKK2): 3.5%; inhibition at 2 µM (BRAF): 0.8%; inhibition at 2 µM (JAK2): 4.9%; inhibition at 2 µM (Drak2): 4.47%"
"O=C1NC(=O)C(c2cn(CCCCn3ccnc3)c3ccccc23)=C1c1noc2ccccc12 [7k, 3-(1-(4-(1H-Imidazol-1-yl)butyl)-1H-indol-3-yl)-4-(benzo[d]isoxazol-3-yl)-1H-pyrrole-2,5-dione]",89.8 ± 4.5,–
